SMILES strings stand for the structures.

Sequence of Vasopressin V1a receptor (P37288 whole entry): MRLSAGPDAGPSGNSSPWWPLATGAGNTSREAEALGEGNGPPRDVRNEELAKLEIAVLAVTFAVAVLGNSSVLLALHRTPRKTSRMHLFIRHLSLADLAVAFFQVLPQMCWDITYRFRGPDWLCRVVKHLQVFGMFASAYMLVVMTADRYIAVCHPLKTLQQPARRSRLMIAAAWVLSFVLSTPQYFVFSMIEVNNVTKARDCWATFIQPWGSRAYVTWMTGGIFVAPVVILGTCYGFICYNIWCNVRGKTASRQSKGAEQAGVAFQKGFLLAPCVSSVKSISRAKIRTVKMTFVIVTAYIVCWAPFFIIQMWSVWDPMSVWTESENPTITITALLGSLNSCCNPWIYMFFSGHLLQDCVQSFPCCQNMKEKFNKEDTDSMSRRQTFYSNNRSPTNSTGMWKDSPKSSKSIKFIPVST
Sequence of Acetylcholinesterase (P22303 whole entry): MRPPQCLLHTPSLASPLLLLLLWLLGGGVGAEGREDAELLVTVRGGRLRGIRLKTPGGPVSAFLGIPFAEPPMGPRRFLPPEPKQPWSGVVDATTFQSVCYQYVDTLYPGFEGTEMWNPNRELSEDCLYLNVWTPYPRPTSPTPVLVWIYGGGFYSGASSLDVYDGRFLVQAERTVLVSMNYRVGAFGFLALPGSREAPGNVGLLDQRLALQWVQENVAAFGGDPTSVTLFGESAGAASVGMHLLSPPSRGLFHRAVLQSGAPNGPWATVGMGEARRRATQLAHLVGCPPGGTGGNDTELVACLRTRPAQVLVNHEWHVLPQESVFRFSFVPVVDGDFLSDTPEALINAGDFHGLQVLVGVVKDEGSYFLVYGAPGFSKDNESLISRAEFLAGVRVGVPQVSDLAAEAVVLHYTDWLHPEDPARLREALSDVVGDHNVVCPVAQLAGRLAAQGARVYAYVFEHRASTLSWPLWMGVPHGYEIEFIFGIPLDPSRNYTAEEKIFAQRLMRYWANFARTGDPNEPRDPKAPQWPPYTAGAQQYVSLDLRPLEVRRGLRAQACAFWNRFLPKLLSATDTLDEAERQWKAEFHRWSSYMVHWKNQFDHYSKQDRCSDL

The first data set deals with T1, Thromboxane-A synthase (Homo sapiens, UniProt P24557).
T1 sequence (P24557 whole entry): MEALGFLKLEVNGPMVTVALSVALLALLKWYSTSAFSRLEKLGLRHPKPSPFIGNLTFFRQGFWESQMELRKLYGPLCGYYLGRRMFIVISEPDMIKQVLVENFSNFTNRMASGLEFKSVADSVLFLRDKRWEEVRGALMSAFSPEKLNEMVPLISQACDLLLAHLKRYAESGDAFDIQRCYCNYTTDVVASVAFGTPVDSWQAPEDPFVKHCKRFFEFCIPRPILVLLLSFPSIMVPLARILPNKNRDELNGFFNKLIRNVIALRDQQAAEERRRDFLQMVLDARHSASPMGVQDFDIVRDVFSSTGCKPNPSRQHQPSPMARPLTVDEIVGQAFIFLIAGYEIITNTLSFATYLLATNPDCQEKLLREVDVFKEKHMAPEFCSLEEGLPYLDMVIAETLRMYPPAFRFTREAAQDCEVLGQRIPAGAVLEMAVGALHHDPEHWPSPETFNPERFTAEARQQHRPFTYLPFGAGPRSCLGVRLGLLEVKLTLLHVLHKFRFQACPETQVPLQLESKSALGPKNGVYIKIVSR
The experiment in a line: biochemical. The format is tissue-based, Platelet. The conditions noted are these: platelet.
For `Fc1ccc([C@@H]2CCNC[C@H]2COc2ccc3c(c2)OCO3)cc1` [PAROXETINE], the IC50 result is given as “Not Active”.
The same measure, in the same setting: the same measure for `COc1ccc(CN(CCN(C)C)c2ccccn2)cc1` [PYRILAMINE]: “Not Active”; for `Cc1c(-c2ccccc2)oc2c(C(=O)OCCN3CCCCC3)cccc2c1=O` [FLAVOXATE]: “Not Active”; for `Cc1[nH]cnc1CN1CCc2c(c3ccccc3n2C)C1=O` [ALOSETRON]: “Not Active”.

A further data set addresses Vasopressin V1a receptor (Homo sapiens, UniProt P37288).
Test: not given
Type of data set: cell membranes, Membrane. The conditions noted are these: hek293.
`Fc1ccc([C@@H]2CCNC[C@H]2COc2ccc3c(c2)OCO3)cc1` [PAROXETINE]: the IC50 entry is “Not Active”.
Turning to `COc1ccc(CN(CCN(C)C)c2ccccn2)cc1` [PYRILAMINE], the IC50 entry is recorded as “Not Active”.
Consider `Cc1c(-c2ccccc2)oc2c(C(=O)OCCN3CCCCC3)cccc2c1=O` [FLAVOXATE], for which the IC50 result is listed as “Not Active”.
On to `Cc1[nH]cnc1CN1CCc2c(c3ccccc3n2C)C1=O` [ALOSETRON], for which the IC50 entry was “Not Active”.

In a further data set the target is Carbonic anhydrase 2 (Homo sapiens, UniProt P00918). In words: DRUGMATRIX: Carbonic Anhydrase II enzyme inhibition (substrate: 4-Nitrophenyl acetate (4-NPA)). The format is tissue-based, Erythrocyte. The conditions noted are these: erythrocyte; Not Active = under 50% inhibition at 10 µM.
On to `Fc1ccc([C@@H]2CCNC[C@H]2COc2ccc3c(c2)OCO3)cc1` [PAROXETINE], for which the IC50 result was “Not Active”.
Consider `COc1ccc(CN(CCN(C)C)c2ccccn2)cc1` [PYRILAMINE], for which the IC50 entry is recorded as “Not Active”.
As to `Cc1c(-c2ccccc2)oc2c(C(=O)OCCN3CCCCC3)cccc2c1=O` [FLAVOXATE], the IC50 result was “Not Active”.
For the compound `Cc1[nH]cnc1CN1CCc2c(c3ccccc3n2C)C1=O` [ALOSETRON], the IC50 entry is “Not Active”.

In the next data set the target is T2, Neuropeptide Y receptor type 2 (Homo sapiens, UniProt P49146). Also: in other assays of this panel Not Active means under 50% inhibition at 10 µM.
T2 sequence (P49146 whole entry): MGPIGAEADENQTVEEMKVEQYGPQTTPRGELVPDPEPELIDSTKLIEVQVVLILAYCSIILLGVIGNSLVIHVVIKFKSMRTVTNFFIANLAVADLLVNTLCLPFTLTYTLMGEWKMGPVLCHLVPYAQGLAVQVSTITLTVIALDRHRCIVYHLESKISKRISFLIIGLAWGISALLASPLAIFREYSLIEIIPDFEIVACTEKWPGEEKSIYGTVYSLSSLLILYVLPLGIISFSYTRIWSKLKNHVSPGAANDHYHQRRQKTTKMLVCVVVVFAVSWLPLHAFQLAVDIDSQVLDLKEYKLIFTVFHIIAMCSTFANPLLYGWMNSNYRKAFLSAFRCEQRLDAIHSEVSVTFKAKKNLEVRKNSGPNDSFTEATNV
Test: not given
The format is cell membranes, Membrane. The conditions noted are these: kan-ts.
Turning to `Fc1ccc([C@@H]2CCNC[C@H]2COc2ccc3c(c2)OCO3)cc1` [PAROXETINE], the IC50 entry is “Not Active”.
Same read-out and setting: the same measure for `COc1ccc(CN(CCN(C)C)c2ccccn2)cc1` [PYRILAMINE]: “Not Active”; for `Cc1c(-c2ccccc2)oc2c(C(=O)OCCN3CCCCC3)cccc2c1=O` [FLAVOXATE]: “Not Active”; for `Cc1[nH]cnc1CN1CCc2c(c3ccccc3n2C)C1=O` [ALOSETRON]: “Not Active”.

A further data set concerns the target Acetylcholinesterase (Homo sapiens, UniProt P22303). In words: DRUGMATRIX: Acetylcholinesterase enzyme inhibition (substrate: acetylthiocholine). Type of data set: cell-based, HEK293. The conditions noted are these: hek293; Not Active = under 50% inhibition at 10 µM.
As to `Fc1ccc([C@@H]2CCNC[C@H]2COc2ccc3c(c2)OCO3)cc1` [PAROXETINE], the IC50 entry is listed as “Not Active”.
Regarding `COc1ccc(CN(CCN(C)C)c2ccccn2)cc1` [PYRILAMINE], the IC50 entry is on record as “Not Active”.
As to `Cc1c(-c2ccccc2)oc2c(C(=O)OCCN3CCCCC3)cccc2c1=O` [FLAVOXATE], the IC50 result was “Not Active”.
Turning to `Cc1[nH]cnc1CN1CCc2c(c3ccccc3n2C)C1=O` [ALOSETRON], the IC50 result is recorded as “Not Active”.

In another data set the target is T3, Cytochrome P450 1A2 (Homo sapiens, UniProt P05177). Also: in other assays of this panel Not Active means under 50% inhibition at 10 µM.
T3 sequence (P05177 whole entry): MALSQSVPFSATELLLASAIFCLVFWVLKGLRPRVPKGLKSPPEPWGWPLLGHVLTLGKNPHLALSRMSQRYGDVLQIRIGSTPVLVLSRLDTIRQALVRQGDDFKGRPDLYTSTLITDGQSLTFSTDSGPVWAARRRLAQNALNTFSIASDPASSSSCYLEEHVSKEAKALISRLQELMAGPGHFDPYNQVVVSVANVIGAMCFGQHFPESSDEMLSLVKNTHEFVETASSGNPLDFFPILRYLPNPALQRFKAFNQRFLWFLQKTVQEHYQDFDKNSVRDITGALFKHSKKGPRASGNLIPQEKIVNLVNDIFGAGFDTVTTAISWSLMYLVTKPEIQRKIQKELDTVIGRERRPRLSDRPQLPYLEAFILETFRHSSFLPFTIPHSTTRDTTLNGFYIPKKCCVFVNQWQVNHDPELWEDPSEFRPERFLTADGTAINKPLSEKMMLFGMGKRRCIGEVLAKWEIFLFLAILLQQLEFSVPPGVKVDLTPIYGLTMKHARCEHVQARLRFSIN
Test: not given
The conditions noted are these: bti-tn-5b1-4.
With `Fc1ccc([C@@H]2CCNC[C@H]2COc2ccc3c(c2)OCO3)cc1` [PAROXETINE], the IC50 result is “Not Active” and the Ki entry is recorded as “Not Active”.
On to `COc1ccc(CN(CCN(C)C)c2ccccn2)cc1` [PYRILAMINE], for which the IC50 result is reported as “Not Active” and the Ki result is reported as “Not Active”.
As to `Cc1c(-c2ccccc2)oc2c(C(=O)OCCN3CCCCC3)cccc2c1=O` [FLAVOXATE], the IC50 entry is recorded as “Not Active” and the Ki result was “Not Active”.

A further data set concerns the target T4, Cytochrome P450 2A6 (Homo sapiens, UniProt P11509). Also: in other assays of this panel Not Active means under 50% inhibition at 10 µM.
T4 sequence (P11509 whole entry): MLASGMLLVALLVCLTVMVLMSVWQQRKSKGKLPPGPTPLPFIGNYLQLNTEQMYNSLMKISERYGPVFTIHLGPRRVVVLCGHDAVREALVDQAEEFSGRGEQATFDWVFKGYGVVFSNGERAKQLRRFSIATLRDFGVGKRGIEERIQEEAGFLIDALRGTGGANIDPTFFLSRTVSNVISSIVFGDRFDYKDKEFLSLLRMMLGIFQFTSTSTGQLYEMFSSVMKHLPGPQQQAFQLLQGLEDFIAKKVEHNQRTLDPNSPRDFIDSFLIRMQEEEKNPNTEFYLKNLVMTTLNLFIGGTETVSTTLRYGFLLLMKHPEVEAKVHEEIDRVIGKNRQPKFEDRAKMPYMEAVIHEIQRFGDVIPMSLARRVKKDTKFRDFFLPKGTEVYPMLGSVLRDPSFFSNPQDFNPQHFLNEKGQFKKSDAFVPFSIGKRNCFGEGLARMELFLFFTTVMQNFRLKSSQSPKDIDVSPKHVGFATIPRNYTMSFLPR
Test: not given
The conditions noted are these: bti-tn-5b1-4.
On to `Fc1ccc([C@@H]2CCNC[C@H]2COc2ccc3c(c2)OCO3)cc1` [PAROXETINE], for which the IC50 result was “Not Active” and the Ki result was “Not Active”.
Consider `COc1ccc(CN(CCN(C)C)c2ccccn2)cc1` [PYRILAMINE], for which the IC50 entry is reported as “Not Active” and the Ki result was “Not Active”.
Consider `Cc1c(-c2ccccc2)oc2c(C(=O)OCCN3CCCCC3)cccc2c1=O` [FLAVOXATE], for which the IC50 entry is reported as “Not Active” and the Ki entry is “Not Active”.
As to `Cc1[nH]cnc1CN1CCc2c(c3ccccc3n2C)C1=O` [ALOSETRON], the IC50 result is “Not Active” and the Ki result was “Not Active”.

In a further data set the target is Cytochrome P450 2C19 (Homo sapiens, UniProt P33261). Also: in other assays of this panel Not Active means under 50% inhibition at 10 µM.
Sequence of Cytochrome P450 2C19 (P33261 whole entry): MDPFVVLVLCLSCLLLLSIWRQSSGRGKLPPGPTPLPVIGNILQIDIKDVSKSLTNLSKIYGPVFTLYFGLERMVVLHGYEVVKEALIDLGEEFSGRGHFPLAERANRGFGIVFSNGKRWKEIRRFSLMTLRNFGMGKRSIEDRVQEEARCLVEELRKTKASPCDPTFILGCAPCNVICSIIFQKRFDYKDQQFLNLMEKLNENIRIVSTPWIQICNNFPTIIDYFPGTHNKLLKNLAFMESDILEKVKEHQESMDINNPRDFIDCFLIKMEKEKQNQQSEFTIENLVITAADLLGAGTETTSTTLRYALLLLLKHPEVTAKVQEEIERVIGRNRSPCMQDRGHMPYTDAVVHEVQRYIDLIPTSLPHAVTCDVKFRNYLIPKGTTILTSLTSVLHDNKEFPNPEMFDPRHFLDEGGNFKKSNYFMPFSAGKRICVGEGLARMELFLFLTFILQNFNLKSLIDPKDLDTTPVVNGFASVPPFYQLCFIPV
Test: not given
The conditions noted are these: bti-tn-5b1-4.
Take `Fc1ccc([C@@H]2CCNC[C@H]2COc2ccc3c(c2)OCO3)cc1` [PAROXETINE]: the IC50 entry was “Not Active” and the Ki entry was “Not Active”.
For `COc1ccc(CN(CCN(C)C)c2ccccn2)cc1` [PYRILAMINE], the IC50 result is listed as “Not Active” and the Ki entry is on record as “Not Active”.
Take `Cc1c(-c2ccccc2)oc2c(C(=O)OCCN3CCCCC3)cccc2c1=O` [FLAVOXATE]: the IC50 entry was “Not Active” and the Ki result is recorded as “Not Active”.
`Cc1[nH]cnc1CN1CCc2c(c3ccccc3n2C)C1=O` [ALOSETRON]: the IC50 entry is “Not Active” and the Ki entry is recorded as “Not Active”.

In the next data set the target is Cytochrome P450 3A4 (Homo sapiens, UniProt P08684). Also: in other assays of this panel Not Active means under 50% inhibition at 10 µM.
Sequence of Cytochrome P450 3A4 (P08684 whole entry): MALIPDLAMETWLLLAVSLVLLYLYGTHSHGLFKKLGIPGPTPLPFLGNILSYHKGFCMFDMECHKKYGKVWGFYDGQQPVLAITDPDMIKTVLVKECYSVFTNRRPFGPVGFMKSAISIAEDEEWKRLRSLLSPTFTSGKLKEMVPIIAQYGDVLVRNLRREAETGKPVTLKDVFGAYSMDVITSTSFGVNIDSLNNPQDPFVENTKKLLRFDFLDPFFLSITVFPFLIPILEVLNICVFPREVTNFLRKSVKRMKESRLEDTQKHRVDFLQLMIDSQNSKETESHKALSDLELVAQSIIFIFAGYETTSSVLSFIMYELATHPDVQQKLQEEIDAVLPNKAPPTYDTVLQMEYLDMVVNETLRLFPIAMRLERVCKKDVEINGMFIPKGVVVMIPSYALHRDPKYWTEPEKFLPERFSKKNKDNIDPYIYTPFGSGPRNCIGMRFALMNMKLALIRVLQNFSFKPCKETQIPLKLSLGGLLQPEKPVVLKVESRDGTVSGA
Test: not given
The conditions noted are these: bti-tn-5b1-4.
Take `Fc1ccc([C@@H]2CCNC[C@H]2COc2ccc3c(c2)OCO3)cc1` [PAROXETINE]: the IC50 entry was “Not Active” and the Ki result is recorded as “Not Active”.
For `COc1ccc(CN(CCN(C)C)c2ccccn2)cc1` [PYRILAMINE], the IC50 entry is listed as “Not Active” and the Ki entry is listed as “Not Active”.
In the case of `Cc1c(-c2ccccc2)oc2c(C(=O)OCCN3CCCCC3)cccc2c1=O` [FLAVOXATE], the IC50 result is reported as “Not Active” and the Ki result is recorded as “Not Active”.
`Cc1[nH]cnc1CN1CCc2c(c3ccccc3n2C)C1=O` [ALOSETRON]: the IC50 entry was “Not Active” and the Ki result was “Not Active”.

The target in a further data set is Voltage-gated inwardly rectifying potassium channel KCNH2 (Homo sapiens, UniProt Q12809). Also: in other assays of this panel Not Active means under 50% inhibition at 10 µM.
Sequence of Voltage-gated inwardly rectifying potassium channel KCNH2 (Q12809 whole entry): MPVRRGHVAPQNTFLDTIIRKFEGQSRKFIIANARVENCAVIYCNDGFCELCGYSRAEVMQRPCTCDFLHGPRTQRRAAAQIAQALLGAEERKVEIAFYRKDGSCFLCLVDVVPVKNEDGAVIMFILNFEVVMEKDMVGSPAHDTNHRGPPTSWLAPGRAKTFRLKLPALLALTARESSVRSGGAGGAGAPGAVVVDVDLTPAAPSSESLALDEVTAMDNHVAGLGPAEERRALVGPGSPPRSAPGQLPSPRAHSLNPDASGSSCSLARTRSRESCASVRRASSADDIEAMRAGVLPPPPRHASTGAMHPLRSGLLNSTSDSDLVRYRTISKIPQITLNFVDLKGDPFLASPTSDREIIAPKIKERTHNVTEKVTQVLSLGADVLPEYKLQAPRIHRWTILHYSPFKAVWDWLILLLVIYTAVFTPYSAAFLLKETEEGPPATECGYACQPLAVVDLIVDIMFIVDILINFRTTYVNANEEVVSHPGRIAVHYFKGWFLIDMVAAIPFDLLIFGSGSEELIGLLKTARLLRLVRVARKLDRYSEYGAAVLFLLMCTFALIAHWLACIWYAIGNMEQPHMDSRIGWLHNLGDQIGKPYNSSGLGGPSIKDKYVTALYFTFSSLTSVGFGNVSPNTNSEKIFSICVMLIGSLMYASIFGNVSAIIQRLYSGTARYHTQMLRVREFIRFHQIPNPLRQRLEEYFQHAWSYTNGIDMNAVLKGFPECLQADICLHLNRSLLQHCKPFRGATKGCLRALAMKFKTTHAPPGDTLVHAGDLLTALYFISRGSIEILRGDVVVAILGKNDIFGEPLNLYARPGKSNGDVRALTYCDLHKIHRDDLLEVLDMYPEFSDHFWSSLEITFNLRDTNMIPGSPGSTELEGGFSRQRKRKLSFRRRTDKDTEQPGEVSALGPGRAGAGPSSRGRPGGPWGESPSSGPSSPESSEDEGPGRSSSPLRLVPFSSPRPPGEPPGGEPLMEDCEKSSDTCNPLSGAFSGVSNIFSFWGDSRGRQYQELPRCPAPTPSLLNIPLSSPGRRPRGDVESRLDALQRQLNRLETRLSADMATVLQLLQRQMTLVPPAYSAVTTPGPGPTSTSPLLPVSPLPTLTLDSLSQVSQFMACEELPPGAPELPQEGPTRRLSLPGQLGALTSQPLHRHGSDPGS
Test: not given
The conditions noted are these: hek293.
As to `Cc1[nH]cnc1CN1CCc2c(c3ccccc3n2C)C1=O` [ALOSETRON], the IC50 result is “Not Active” and the Ki entry is on record as “Not Active”.

These data come from ChEMBL document CHEMBL1909046, “DrugMatrix in vitro pharmacology data”.
